Experimental data published in patent US20120270237A9, “METHODS FOR THE IDENTIFICATION OF KINASE INTERACTING MOLECULES AND FOR THE PURIFICATION OF KINASE PROTEINS” (Cellzone AG, priority 2009, published 2012).

Key:
[1] = target: T1, PIP5K2A (Homo sapiens, UniProt P48426); test: Kinobeads competition binding, L-363 cell lysate; parameters: endogenous in cells; host or cells: L-363 (treated with MG132 for three hours before harvest); conditions: 10 μM free compound, L-363 lysate
T1 sequence (P48426 1-406): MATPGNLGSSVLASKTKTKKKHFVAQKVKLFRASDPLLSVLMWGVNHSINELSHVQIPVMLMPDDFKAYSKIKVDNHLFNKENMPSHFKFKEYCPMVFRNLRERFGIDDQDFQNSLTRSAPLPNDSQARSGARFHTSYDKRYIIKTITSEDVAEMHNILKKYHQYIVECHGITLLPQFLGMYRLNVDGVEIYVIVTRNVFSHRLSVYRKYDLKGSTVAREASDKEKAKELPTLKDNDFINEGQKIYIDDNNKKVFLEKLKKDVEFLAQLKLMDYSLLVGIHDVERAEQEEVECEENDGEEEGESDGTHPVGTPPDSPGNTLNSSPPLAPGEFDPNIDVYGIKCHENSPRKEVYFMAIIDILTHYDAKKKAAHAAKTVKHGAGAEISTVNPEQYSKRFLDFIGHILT
Method: (§1) To one aliquot of cell lysate 10 μM of the free compound (FIG. 3, CZC31326) was added and allowed to bind to proteins in the lysate. Then the affinity matrix with the immobilized compound was added to capture proteins that were not interacting with the previously added free compound. Beads were separated from the lysate and bead bound proteins were eluted in SDS sample buffer and subsequently separated by SDS-Polyacrylamide gel electrophoresis (FIG. 8). Suitable gel bands were cut out and subjected to in-gel proteolytic digestion with trypsin. The second lysate aliquot was processed identically, however no free compound was added (DMSO solvent control). Peptides originating from samples 1 and 2 were labeled with iTRAQ reagents (iTRAQ 114 and iTRAQ 117) and the combined samples were analyzed with a nano-flow liquid chromatography system coupled online to a tandem mass spectrometer (LC-MS/MS) experiment followed by iTRAQ reporter ion quantification in the MS/MS spectra as described in Example 2.
(§2) For this experiment the human plasma cell leukaemia line L-363 was used (German Collection of Microorganisms and Cell Cultures, DSMZ number ACC49, Braunschweig, Germany). Cells were treated for three hours with 20 μM of the proteasome inhibitor MG132 (Z-Leu-Leu-Leu-al, Sigma C2211) prior to cell harvesting.

[2] = target: T2, PKD3 (Homo sapiens, UniProt O94806); test: Kinobeads competition binding, L-363 cell lysate; parameters: endogenous in cells; host or cells: L-363 (treated with MG132 for three hours before harvest); conditions: 10 μM free compound, L-363 lysate
T2 sequence (O94806 1-890): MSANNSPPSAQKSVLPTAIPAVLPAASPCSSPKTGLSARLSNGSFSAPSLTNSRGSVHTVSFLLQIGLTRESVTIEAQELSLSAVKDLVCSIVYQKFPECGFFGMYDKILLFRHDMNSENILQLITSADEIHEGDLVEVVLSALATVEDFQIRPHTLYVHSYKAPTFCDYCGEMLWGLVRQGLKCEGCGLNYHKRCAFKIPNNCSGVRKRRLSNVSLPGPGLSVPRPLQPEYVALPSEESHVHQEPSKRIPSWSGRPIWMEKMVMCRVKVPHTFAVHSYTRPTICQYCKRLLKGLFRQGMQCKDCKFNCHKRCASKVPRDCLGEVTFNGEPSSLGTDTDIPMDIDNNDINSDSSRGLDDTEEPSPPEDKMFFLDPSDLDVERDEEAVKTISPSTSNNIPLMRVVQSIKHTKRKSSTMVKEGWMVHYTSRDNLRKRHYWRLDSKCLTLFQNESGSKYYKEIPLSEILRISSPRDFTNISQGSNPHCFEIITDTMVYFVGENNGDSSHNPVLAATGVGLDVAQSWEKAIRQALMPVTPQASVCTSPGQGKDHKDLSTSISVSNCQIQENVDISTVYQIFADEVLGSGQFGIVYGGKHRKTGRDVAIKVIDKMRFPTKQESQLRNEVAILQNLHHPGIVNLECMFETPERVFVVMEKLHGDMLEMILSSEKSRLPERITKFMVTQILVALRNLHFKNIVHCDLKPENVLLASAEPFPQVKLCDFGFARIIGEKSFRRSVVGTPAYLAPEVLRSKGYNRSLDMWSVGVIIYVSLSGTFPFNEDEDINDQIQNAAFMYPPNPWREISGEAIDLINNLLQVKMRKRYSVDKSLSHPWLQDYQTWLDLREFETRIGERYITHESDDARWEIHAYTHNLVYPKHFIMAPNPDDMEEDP
Method: as §1, §2

[3] = target: CDK2 (Homo sapiens, UniProt P24941); test: Kinobeads competition binding, HeLa Placenta lysate mix; parameters: capturing and identification of kinases from mixed HeLa placenta lysates; endogenous in cells; host or cells: mix of HeLa cell lysate and placenta tissue lysate; conditions: 10 μM free compound
Method: as §1, with “10).” for “8).”

[4] = target: ALK2 (Homo sapiens, UniProt Q04771); test: as above; parameters: capturing and identification of kinases from mixed HeLa placenta lysates; endogenous in cells; host or cells: mix of HeLa cell lysate and placenta tissue lysate; conditions: 10 μM free compound
Method: as §1, with “10).” for “8).”

[5] = target: CK2a2 (Homo sapiens, UniProt P19784); test: as above; parameters: capturing and identification of kinases from mixed HeLa placenta lysates; endogenous in cells; host or cells: mix of HeLa cell lysate and placenta tissue lysate; conditions: 10 μM free compound
Method: as §1, with “10).” for “8).”

[6] = target: MST2 (Homo sapiens, UniProt Q13188); test: as above; parameters: capturing and identification of kinases from mixed HeLa placenta lysates; endogenous in cells; host or cells: mix of HeLa cell lysate and placenta tissue lysate; conditions: 10 μM free compound
Method: as §1, with “10).” for “8).”

- inhibition at 10 µM [1]: 96.4%
- inhibition at 10 µM [2]: 98.1%
- Competition % [3]: 93%
- inhibition at 10 µM [4]: 94.3%
- inhibition at 10 µM [5]: 95.4%
- inhibition at 10 µM [6]: 93.9%
SMILES: CS(=O)(=O)Nc1ccccc1Nc1nc(Nc2cccc(OCCN)c2)ncc1Cl [CZC31326, N-(2-(2-(3-(2-aminoethoxy)phenylamino)-5-chloropyrimidin-4-ylamino)phenyl)methanesulfonamide]
